Molecular target: T1, HIV-integrase (Human immunodeficiency virus type 1 group M subtype B, UniProt P04585)
T1 construct: Recombinant integrase (0.26 ng) was incubated with the beads
Assay: in-vitro activity against HIV-integrase (HIV Integrase Inhibition, SPA bead assay)
Type: biochemical
Details: Table 1; recombinant integrase, activity class
Procedure, shortened: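 Recombinant integrase (0.26 ng) pre-bound for 90 min at 37 °C to biotinylated substrate DNA on streptavidin SPA beads, then washed. Inhibitors added with 33P-labelled target DNA; reaction stopped with 10 mM EDTA. Scintillation CPM taken as integration signal.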

Structure (SMILES) | IC50 [nM]
O=C(NCc1ccccc1N1CCCCS1(=O)=O)c1nc2n(c(=O)c1O)CCOC21CCC1 [Example 56, N-[[2-(tetrahydro-1,1-dioxido-2H-1,2-thiazin-2-yl)phenyl]methyl]-6′,7′-dihydro-3′-hydroxy-4′-oxo-spiro[cyclobutane-1,9′(4′H)-pyrimido[2,1-c][1,4]oxazine]-2′-carboxamide] | 10 to 100
O=C(NCc1ccc(Cl)c(Cl)c1)c1nc2n(c(=O)c1O)CCOC21CCCC1 [Example 21, N-[(3,4-dichlorophenyl)methyl]-6′,7′-dihydro-3′-hydroxy-4′-oxo-spiro[cyclopentane-1,9′(4′H)-pyrimido[2,1-c][1,4]oxazine]-2′-carboxamide] | 1 to 10
CN(C)S(=O)(=O)c1cc(F)ccc1CNC(=O)c1nc2n(c(=O)c1O)CCCOC21CCC1 [Example 61] | 10 to 100
O=C(NCc1ccc(Cl)cc1)c1nc2n(c(=O)c1O)CCOC21CCCC1 [Example 20, N-[(4-chlorophenyl)methyl]-6′,7′-dihydro-3′-hydroxy-4′-oxo-spiro[cyclopentane-1,9′(4′H)-pyrimido[2,1-c][1,4]oxazine]-2′-carboxamide] | 1 to 10
CS(=O)(=O)c1cc(F)ccc1CNC(=O)c1nc2n(c(=O)c1O)CCC21CCCC1 [Example 85, N-[[4-fluoro-2-(methylsulfonyl)phenyl]methyl]-6′,7′-dihydro-3′-hydroxy-4′-oxo-spiro[cyclopentane-1,8′(4′H)-pyrrolo[1,2-α]pyrimidine]-2′-carboxamide] | 1 to 10
O=C(NCc1ccc(F)cc1-n1nccn1)c1nc2n(c(=O)c1O)CCCC21CCCC1 [Example 6, N-[[4-fluoro-2-(2H-1,2,3-triazol-2-yl)phenyl]methyl]-7′,8′-dihydro-3′-hydroxy-4′-oxo-spiro[cyclopentane-1,9′(6′H)-[4H]pyrido[1,2-α]pyrimidine]-2′-carboxamide] | 1 to 10
O=C(NCc1cc(F)ccc1-n1cncn1)c1nc2n(c(=O)c1O)CCCC21CCC1 [Example 77, N-[[5-fluoro-2-(1H-1,2,4-triazol-1-yl)phenyl]methyl]-7′,8′-dihydro-3′-hydroxy-4′-oxo-spiro[cyclobutane-1,9′(6′H)-[4H]pyrido[1,2-α]pyrimidine]-2′-carboxamide] | 1 to 10
O=C(NCc1ccc(F)cc1-n1cncn1)c1nc2n(c(=O)c1O)CCOC21CCC1 [Example 51, N-[[4-fluoro-2-(1H-1,2,4-triazol-1-yl)phenyl]methyl]-6′,7′-dihydro-3′-hydroxy-4′-oxo-spiro[cyclobutane-1,9′(4′H)-pyrimido[2,1-c][1,4]oxazine]-2′-carboxamide] | 1 to 10
O=C(NCc1ccc(F)cc1N1CCCCS1(=O)=O)c1nc2n(c(=O)c1O)CCOC21CCC1 [Example 55, N-[[4-fluoro-2-(tetrahydro-1,1-dioxido-2H-1,2-thiazin-2-yl)phenyl]methyl]-6′,7′-dihydro-3′-hydroxy-4′-oxo-spiro[cyclobutane-1,9′(4′H)-pyrimido[2,1-c][1,4]oxazine]-2′-carboxamide] | 1 to 10
O=C(NCc1ccc(Cl)c(Cl)c1)c1nc2n(c(=O)c1O)CCCC21CCC1 [Example 70, N-[(3,4-dichlorophenyl)methyl]-7′,8′-dihydro-3′-hydroxy-4′-oxo-spiro[cyclobutane-1,9′(6′H)-[4H]pyrido[1,2-α]pyrimidine]-2′-carboxamide] | 1 to 10
O=C(NCc1ccc(F)cc1-n1cncn1)c1nc2n(c(=O)c1O)CCOC21CCOCC1 [Example 41] | 1 to 10
COc1ccc(CNC(=O)c2nc3n(c(=O)c2O)CCOC32CCOCC2)c(OC)c1 [Example 46, N-[(2,4-dimethoxyphenyl)methyl]-2,3,5,6,6′,7′-hexahydro-3′-hydroxy-4′-oxo-spiro[4H-pyran-4,9′(4′H)-pyrimido[2,1-c][1,4]oxazine]-2′-carboxamide] | 10 to 100
CNC(=O)c1cc(F)ccc1CNC(=O)c1nc2n(c(=O)c1O)CCOC21CCC1 [Example 91, N-[[4-fluoro-2-[(methylamino)carbonyl]phenyl]methyl]-6′,7′-dihydro-3′-hydroxy-4′-oxo-spiro[cyclobutane-1,9′(4′H)-pyrimido[2,1-c][1,4]oxazine]-2′-carboxamide] | 1 to 10
Cc1ncn(-c2cc(F)ccc2CNC(=O)c2nc3n(c(=O)c2O)CCOC32CCOCC2)n1 [Example 50, N-[[4-fluoro-2-(3-methyl-1H-1,2,4-triazol-1-yl)phenyl]methyl]-2,3,5,6,6′,7′-hexahydro-3′-hydroxy-4′-oxo-spiro[4H-pyran-4,9′(4′H)-pyrimido[2,1-c][1,4]oxazine]-2′-carboxamide] | 1 to 10
O=C(NCc1ccc(F)cc1-n1cncn1)c1nc2n(c(=O)c1O)CCOC21CCCC1 [Example 17, N-[[4-fluoro-2-(1 H-1,2,4-triazol-1-yl)phenyl]methyl]-6′,7′-dihydro-3′-hydroxy-4′-oxo-spiro[cyclopentane-1,9′(4′H)-pyrimido[2,1-c][1,4]oxazine]-2′-carboxamide] | 1 to 10

Same assay, conditions: Table 1a; recombinant integrase, activity class

Structure (SMILES) | IC50 [nM]
Cc1ncn(-c2ccccc2CNC(=O)c2nc3n(c(=O)c2O)CCCOC32CCOCC2)n1 [Example 121, Spiro[4H-pyran-4,10′(4′H)-[6H]pyrimido[2,1-c][1,4]oxazepine]-2′-carboxamide, 2,3,5,6,7,8′-hexahydro-3′-hydroxy-N-[[2-(3-methyl-1H-1,2,4-triazol-1-yl)phenyl]methyl]-4′-oxo-] | 10 to 100
O=C(NCc1ccc(F)cc1-n1cncn1)c1nc2n(c(=O)c1O)CCCOC21CCOCC1 [Example 118, Spiro[4H-pyran-4,10′(4′H)-[6H]pyrimido[2,1-c][1,4]oxazepine]-2′-carboxamide, N-[[4-fluoro-2-(1H-1,2,4-triazol-1-yl)phenyl]methyl]-2,3,5,6,7′,8′-hexahydro-3′-hydroxy-4′-oxo-] | 1 to 10
CS(=O)(=O)c1cc(F)ccc1CNC(=O)c1nc2n(c(=O)c1O)CCCOC21CCOCC1 [Example 116, Spiro[4H-pyran-4,10′(4′H)-[6H]pyrimido[2,1-c][1,4]oxazepine]-2′-carboxamide, N-[[4-fluoro-2-(methylsulfonyl)phenyl]methyl]-2,3,5,6,7′,8′-hexahydro-3′-hydroxy-4′-oxo-] | 10 to 100
Cc1ncn(-c2cc(F)ccc2CNC(=O)c2nc3n(c(=O)c2O)CCCOC32CCOCC2)n1 [Example 119, Spiro[4H-pyran-4,10′(4′H)-[6H]pyrimido[2,1-c][1,4]oxazepine]-2′-carboxamide, N-[[4-fluoro-2-(3-methyl-1H-1,2,4-triazol-1-yl)phenyl]methyl]-2,3,5,6,7′,8′-hexahydro-3′-hydroxy-4′-oxo-] | 1 to 10
Cc1ncnn1-c1cc(F)ccc1CNC(=O)c1nc2n(c(=O)c1O)CCCOC21CCOCC1 [Example 120, Spiro[4H-pyran-4,10′(4′H)-[6H]pyrimido[2,1-c][1,4]oxazepine]-2′-carboxamide, N-[[4-fluoro-2-(5-methyl-1H-1,2,4-triazol-1-yl)phenyl]methyl]-2,3,5,6,7′,8′-hexahydro-3′-hydroxy-4′-oxo-] | 10 to 100
Cc1ncnn1-c1cc(F)ccc1CNC(=O)c1nc2n(c(=O)c1O)CCN(C)C21CCC1 [Example 100, Spiro[cyclobutane-1,9′(6′H)-[4H]pyrazino[1,2-a]pyrimidine]-2′-carboxamide, N-[[4-fluoro-2-(5-methyl-1H-1,2,4-triazol-1-yl)phenyl]methyl]-7′,8′-dihydro-3′-hydroxy-8′-methyl-4′-oxo-] | 10 to 100
O=C(NCc1ccc(F)cc1)c1nc2n(c(=O)c1O)CCCOC21CCOCC1 [Example 114, Spiro[4H-pyran-4,10′(4′H)-[6H]pyrimido[2,1-c][1,4]oxazepine]-2′-carboxamide, N-[(4-fluorophenyl)methyl]-2,3,5,6,7′,8′-hexahydro-3′-hydroxy-4′-oxo-] | 1 to 10
O=C(NCc1ccc(F)cc1-n1ccnn1)c1nc2n(c(=O)c1O)CCOC21CCCC1 [Example 113, Spiro[cyclopentane-1,9′(4′H)-pyrimido[2,1-c][1,4]oxazine]-2′-carboxamide, N-[[4-fluoro-2-(1H-1,2,3-triazol-1-yl)phenyl]methyl]-6′,7′-dihydro-3′-hydroxy-4′-oxo-] | 1 to 10
Cc1nc(C)n(-c2cc(F)ccc2CNC(=O)c2nc3n(c(=O)c2O)CCOC32CCC2)n1 [Example 127, Spiro[cyclobutane-1,9′(4′H)-pyrimido[2,1-c][1,4]oxazine]-2′-carboxamide, N-[[2-(3,5-dimethyl-1H-1,2,4-triazol-1-yl)-4-fluorophenyl]methyl]-6′,7′-dihydro-3′-hydroxy-4′-oxo-] | 10 to 100
Cc1cnnn1-c1cc(F)ccc1CNC(=O)c1nc2n(c(=O)c1O)CCOC21CCC1 [Example 104, Spiro[cyclobutane-1,9′(4′H)-pyrimido[2,1-c][1,4]oxazine]-2′-carboxamide, N-[[4-fluoro-2-(5-methyl-1H-1,2,3-triazol-1-yl)phenyl]methyl]-6′,7′-dihydro-3′-hydroxy-4′-oxo-] | 1 to 10
Cc1ncn(-c2cc(F)ccc2CNC(=O)c2nc3n(c(=O)c2O)CCOC32CCC2)n1 [Example 124, Spiro[cyclobutane-1,9′(4′H)-pyrimido[2,1-c][1,4]oxazine]-2′-carboxamide, N-[[4-fluoro-2-(3-methyl-1H-1,2,4-triazol-1-yl)phenyl]methyl]-6′,7′-dihydro-3′-hydroxy-4′-oxo-] | 1 to 10
CN1CCn2c(nc(C(=O)NCc3ccc(F)cc3-n3cncn3)c(O)c2=O)C12CCCCC2 [Example 96, Spiro[cyclohexane-1,9′(6′H)-[4H]pyrazino[1,2-a]pyrimidine]-2′-carboxamide, N-[[4-fluoro-2-(1H-1,2,4-triazol-1-yl)phenyl]methyl]-7′,8′-dihydro-3′-hydroxy-8′-methyl-4′-oxo-] | 1 to 10

Test system: not given
Assay: not given
Details: not given

Structure (SMILES) | melting point
Cc1ncn(-c2ccccc2CNC(=O)c2nc3n(c(=O)c2O)CCCOC32CCOCC2)n1 [Example 121, Spiro[4H-pyran-4,10′(4′H)-[6H]pyrimido[2,1-c][1,4]oxazepine]-2′-carboxamide, 2,3,5,6,7,8′-hexahydro-3′-hydroxy-N-[[2-(3-methyl-1H-1,2,4-triazol-1-yl)phenyl]methyl]-4′-oxo-] | 247 °C (dec.)
O=C(NCc1ccc(F)cc1-n1cncn1)c1nc2n(c(=O)c1O)CCCOC21CCOCC1 [Example 118, Spiro[4H-pyran-4,10′(4′H)-[6H]pyrimido[2,1-c][1,4]oxazepine]-2′-carboxamide, N-[[4-fluoro-2-(1H-1,2,4-triazol-1-yl)phenyl]methyl]-2,3,5,6,7′,8′-hexahydro-3′-hydroxy-4′-oxo-] | 247 °C (dec.)
CS(=O)(=O)c1cc(F)ccc1CNC(=O)c1nc2n(c(=O)c1O)CCCOC21CCOCC1 [Example 116, Spiro[4H-pyran-4,10′(4′H)-[6H]pyrimido[2,1-c][1,4]oxazepine]-2′-carboxamide, N-[[4-fluoro-2-(methylsulfonyl)phenyl]methyl]-2,3,5,6,7′,8′-hexahydro-3′-hydroxy-4′-oxo-] | 257 °C (dec.)
Cc1ncn(-c2cc(F)ccc2CNC(=O)c2nc3n(c(=O)c2O)CCCOC32CCOCC2)n1 [Example 119, Spiro[4H-pyran-4,10′(4′H)-[6H]pyrimido[2,1-c][1,4]oxazepine]-2′-carboxamide, N-[[4-fluoro-2-(3-methyl-1H-1,2,4-triazol-1-yl)phenyl]methyl]-2,3,5,6,7′,8′-hexahydro-3′-hydroxy-4′-oxo-] | 240 °C (dec.)
Cc1ncnn1-c1cc(F)ccc1CNC(=O)c1nc2n(c(=O)c1O)CCCOC21CCOCC1 [Example 120, Spiro[4H-pyran-4,10′(4′H)-[6H]pyrimido[2,1-c][1,4]oxazepine]-2′-carboxamide, N-[[4-fluoro-2-(5-methyl-1H-1,2,4-triazol-1-yl)phenyl]methyl]-2,3,5,6,7′,8′-hexahydro-3′-hydroxy-4′-oxo-] | 204 °C
